Source: patent US20210045385A1, “PYRIDAZINONE-SUBSTITUTED KETOXIMES AS HERBICIDES” (FMC Corporation, priority 2018, published 2021)

How the values were obtained:
Type in all cases: in vivo
[1] = tested on: Italian ryegrass (Lolium mutiflorum); experiment: Test C preemergence, visual plant response rating; details: Test C, 0 is no effect, 100 is complete control
Procedure, shortened: (§1)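 Visual injury on a 0 (no effect) to 100 (complete control) scale versus untreated controls, scored approximately 10 d after treatment under greenhouse conditions. Treatments used surfactant-containing non-phytotoxic solvent formulations, sprayed onto loam–sand soil preemergence or onto one- to two-leaf plants 2–10 cm tall postemergence.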

[2] = tested on: pigweed (Amaranthus retroflexus); experiment: Test C preemergence, visual plant response rating; details: Test C, 0 is no effect, 100 is complete control
Procedure, shortened: as §1

[3] = tested on: barnyardgrass (Echinochloa crus-galli); experiment: Test C preemergence, visual plant response rating; details: Test C, 0 is no effect, 100 is complete control
Procedure, shortened: as §1

kochia (Bassia scoparia) [4] = experiment: Test C preemergence, visual plant response rating; details: Test C, 0 is no effect, 100 is complete control
Procedure, shortened: as §1

[5] = tested on: foxtail, giant (giant foxtail, Setaria faberi); experiment: Test C preemergence, visual plant response rating; details: Test C, 0 is no effect, 100 is complete control
Procedure, shortened: as §1

[6] = tested on: ragweed (common ragweed, Ambrosia artemisiifolia); experiment: Test C preemergence, visual plant response rating; details: Test C, 0 is no effect, 100 is complete control
Procedure, shortened: as §1

rice (Oryza sativa) = experiment: Test D flooded paddy test, visual plant response rating; details: 250 g ai/ha, scale 0 to 100 (0 no effect, 100 complete control), 13 to 15 d
Procedure, shortened: (§2)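 Rating is visual, on a 0 (no effect) to 100 (complete control) scale versus controls, taken 13 to 15 d after treatment in a greenhouse. Treatment went into paddy water kept 3 cm above the soil surface, with plants at the 2-leaf stage.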

[7] = tested on: sedge umbrella (small-flower umbrella sedge, Cyperus difformis); experiment: as above; details: 250 g ai/ha, scale 0 to 100 (0 no effect, 100 complete control), 13 to 15 d
Procedure, shortened: as §2

[8] = tested on: duck salad (Heteranthera limosa); experiment: as above; details: 250 g ai/ha, scale 0 to 100 (0 no effect, 100 complete control), 13 to 15 d
Procedure, shortened: as §2

[9] = tested on: barnyardgrass (Echinochloa crus-galli); experiment: as above; details: 250 g ai/ha, scale 0 to 100 (0 no effect, 100 complete control), 13 to 15 d
Procedure, shortened: as §2

[10] = tested on: wheat (Triticum aestivum); experiment: Test C postemergence, visual plant response rating
Procedure, shortened: as §1

corn (Zea mays) = experiment: Test C postemergence, visual plant response rating
Procedure, shortened: as §1

[11] = tested on: Italian ryegrass (Lolium mutiflorum); experiment: Test C postemergence, visual plant response rating
Procedure, shortened: as §1

[12] = tested on: pigweed (Amaranthus retroflexus); experiment: Test C postemergence, visual plant response rating
Procedure, shortened: as §1

[13] = tested on: barnyardgrass (Echinochloa crus-galli); experiment: Test C postemergence, visual plant response rating
Procedure, shortened: as §1

[14] = tested on: galium (catchweed bedstraw, Galium aparine); experiment: Test C postemergence, visual plant response rating
Procedure, shortened: as §1

[15] = tested on: blackgrass (Alopecurus myosuroides); experiment: Test C postemergence, visual plant response rating
Procedure, shortened: as §1

kochia (Bassia scoparia) [16] = experiment: Test C postemergence, visual plant response rating
Procedure, shortened: as §1

[17] = tested on: foxtail, giant (giant foxtail, Setaria faberi); experiment: Test C postemergence, visual plant response rating
Procedure, shortened: as §1

[18] = tested on: ragweed (common ragweed, Ambrosia artemisiifolia); experiment: Test C postemergence, visual plant response rating
Procedure, shortened: as §1

[19] = Test C, postemergence, 125 g ai/ha

Structure (SMILES) | Ryegrass, Italian plant response rating (0 to 100 scale) ([1]; 31 g ai/ha) | Ryegrass, Italian plant response rating (0 to 100 scale) ([1]; 125 g ai/ha) | Pigweed plant response rating (0 to 100 scale) ([2]; 31 g ai/ha) | Pigweed plant response rating (0 to 100 scale) ([2]; 125 g ai/ha) | Barnyardgrass plant response rating (0 to 100 scale) ([3]; 31 g ai/ha) | Barnyardgrass plant response rating (0 to 100 scale) ([3]; 125 g ai/ha) | Kochia plant response rating (0 to 100 scale) (kochia (Bassia scoparia) [4]; 31 g ai/ha) | Kochia plant response rating (0 to 100 scale) (kochia (Bassia scoparia) [4]; 125 g ai/ha) | Foxtail, Giant plant response rating (0 to 100 scale) ([5]; 31 g ai/ha) | Foxtail, Giant plant response rating (0 to 100 scale) ([5]; 125 g ai/ha) | Ragweed plant response rating (0 to 100 scale) ([6]; 31 g ai/ha) | Ragweed plant response rating (0 to 100 scale) ([6]; 125 g ai/ha) | Plant response rating, Rice (Flood) (rice (Oryza sativa)) | Plant response rating, Sedge, Umbrella (Flood) [7] | Plant response rating, Ducksalad (Flood) [8] | Plant response rating, Barnyardgrass (Flood) [9] | Wheat plant response rating (0 to 100 scale) ([10]; Postemergence, 31 g ai/ha) | Wheat plant response rating (0 to 100 scale) [10, 19] | Corn plant response rating (0 to 100 scale) (corn (Zea mays); Postemergence, 31 g ai/ha) | Corn plant response rating (0 to 100 scale) (corn (Zea mays); [19]) | further results
CO/N=C(\c1c(O)c(C)nn(C)c1=O)c1cc(SC)cc2ccccc12 [Compound 279] | 0 | 0 | 0 | 0 | 0 | 0 | 0 | 0 | 0 | 0 | 0 | 0 | 0 | 0 | 0 | 0 | 0 | 0 | 0 | 0 | Ryegrass, Italian plant response rating (0 to 100 scale) ([11]; Postemergence, 31 g ai/ha): 0; Ryegrass, Italian plant response rating (0 to 100 scale) [11, 19]: 0; Pigweed plant response rating (0 to 100 scale) ([12]; Postemergence, 31 g ai/ha): 0; Pigweed plant response rating (0 to 100 scale) [12, 19]: 10; Barnyardgrass plant response rating (0 to 100 scale) ([13]; Postemergence, 31 g ai/ha): 0; Barnyardgrass plant response rating (0 to 100 scale) [13, 19]: 0; Galium plant response rating (0 to 100 scale) ([14]; Postemergence, 31 g ai/ha): 0; Galium plant response rating (0 to 100 scale) [14, 19]: 0; Blackgrass plant response rating (0 to 100 scale) ([15]; Postemergence, 31 g ai/ha): 0; Blackgrass plant response rating (0 to 100 scale) [15, 19]: 0; Kochia plant response rating (0 to 100 scale) (kochia (Bassia scoparia) [16]; Postemergence, 31 g ai/ha): 0; Kochia plant response rating (0 to 100 scale) (kochia (Bassia scoparia) [16]; [19]): 30; Foxtail, Giant plant response rating (0 to 100 scale) ([17]; Postemergence, 31 g ai/ha): 0; Foxtail, Giant plant response rating (0 to 100 scale) [17, 19]: 0; Ragweed plant response rating (0 to 100 scale) ([18]; Postemergence, 31 g ai/ha): 0; Ragweed plant response rating (0 to 100 scale) [18, 19]: 10
C#CCO/N=C(\c1ccc(F)c(Cl)c1)c1c(O)c(C)nn(C)c1=O [Compound 230] | 0 | 10 | 10 | 30 | 0 | 0 | 0 | 0 | 0 | 30 | 0 | 0 | 0 | 0 | 0 | 0 | 0 | 60 | 0 | 0 | Ryegrass, Italian plant response rating (0 to 100 scale) ([11]; Postemergence, 31 g ai/ha): 0; Ryegrass, Italian plant response rating (0 to 100 scale) [11, 19]: 40; Pigweed plant response rating (0 to 100 scale) ([12]; Postemergence, 31 g ai/ha): 0; Pigweed plant response rating (0 to 100 scale) [12, 19]: 20; Barnyardgrass plant response rating (0 to 100 scale) ([13]; Postemergence, 31 g ai/ha): 0; Barnyardgrass plant response rating (0 to 100 scale) [13, 19]: 20; Galium plant response rating (0 to 100 scale) ([14]; Postemergence, 31 g ai/ha): 50; Galium plant response rating (0 to 100 scale) [14, 19]: 70; Blackgrass plant response rating (0 to 100 scale) ([15]; Postemergence, 31 g ai/ha): 0; Blackgrass plant response rating (0 to 100 scale) [15, 19]: 10; Kochia plant response rating (0 to 100 scale) (kochia (Bassia scoparia) [16]; Postemergence, 31 g ai/ha): 0; Kochia plant response rating (0 to 100 scale) (kochia (Bassia scoparia) [16]; [19]): 0; Foxtail, Giant plant response rating (0 to 100 scale) ([17]; Postemergence, 31 g ai/ha): 10; Foxtail, Giant plant response rating (0 to 100 scale) [17, 19]: 30; Ragweed plant response rating (0 to 100 scale) ([18]; Postemergence, 31 g ai/ha): 10; Ragweed plant response rating (0 to 100 scale) [18, 19]: 20
C#CCO/N=C(\c1cc(Cl)cc(Br)c1)c1c(O)c(C)nn(C)c1=O [Compound 292] | 80 | 100 | 50 | 100 | 60 | 100 | 30 | 100 | 70 | 100 | 90 | 100 | 0 | 55 | 45 | 0 | 60 | 100 | 0 | 40 | Ryegrass, Italian plant response rating (0 to 100 scale) ([11]; Postemergence, 31 g ai/ha): 100; Ryegrass, Italian plant response rating (0 to 100 scale) [11, 19]: 100; Pigweed plant response rating (0 to 100 scale) ([12]; Postemergence, 31 g ai/ha): 60; Pigweed plant response rating (0 to 100 scale) [12, 19]: 90; Barnyardgrass plant response rating (0 to 100 scale) ([13]; Postemergence, 31 g ai/ha): 30; Barnyardgrass plant response rating (0 to 100 scale) [13, 19]: 70; Galium plant response rating (0 to 100 scale) ([14]; Postemergence, 31 g ai/ha): 100; Galium plant response rating (0 to 100 scale) [14, 19]: 100; Blackgrass plant response rating (0 to 100 scale) ([15]; Postemergence, 31 g ai/ha): 0; Blackgrass plant response rating (0 to 100 scale) [15, 19]: 80; Kochia plant response rating (0 to 100 scale) (kochia (Bassia scoparia) [16]; Postemergence, 31 g ai/ha): 60; Kochia plant response rating (0 to 100 scale) (kochia (Bassia scoparia) [16]; [19]): 100; Foxtail, Giant plant response rating (0 to 100 scale) ([17]; Postemergence, 31 g ai/ha): 60; Foxtail, Giant plant response rating (0 to 100 scale) [17, 19]: 100; Ragweed plant response rating (0 to 100 scale) ([18]; Postemergence, 31 g ai/ha): 100; Ragweed plant response rating (0 to 100 scale) [18, 19]: 100
